Patent US11173137B2, “Compositions and methods to modulate chloride ion channel activity” (The Board of Trustees of the Leland Stanford Junior …, priority 2018, dated 2021)
Where “and” joins values, the source holds several entries; their conditions need not be identical. Equal values may be shown once. Read-outs that look alike come from different tables or passages of the source.

Assays:
[1] = target: T1, CLC-2 (Homo sapiens (Human), UniProt P51788); assay: IonWorks Barracuda automated patch-clamp electrophysiology, human CLC-2 cell line; type: cell-based; settings: for % inhibition at the concentration listed (in parenthesis): CLC-2, at the concentration listed in the IC50 cell, negative = increase in peak current
Source text: FIG. 8, panels A and B depict graphically the Selectivity between CLC-1 and CLC-2. […]

[2] = target: CLC-1 (Homo sapiens (Human), UniProt P35523); assay: IonWorks Barracuda automated patch-clamp electrophysiology, CLC-1; type: cell-based; settings: for IC50: Table 2
Description: If the IC50 was greater than the highest concentration tested, this concentration is listed along with the percent inhibition at this concentration (in parenthesis).
FIG. 8, panels A and B depict graphically the Selectivity between CLC-1 and CLC-2. […] Data points represent the mean current block at 16 different FA44 concentrations (n=4-8), using the IonWorks™ Barracuda. […] Panel B depicts a summary graph showing the mean inhibition of CLC-1 (left bar) or CLC-2 (right bar) current at 30 μM, illustrating the improvement in both selectivity and potency from the hit compound MCFA to the exemplary compound FA44.

[3] = target: T1, CLC-2; settings: cited from earlier work
[4] = n = 4 cells, four concentrations of each compound, IonWorks Barracuda, read-out: IC50 (μM) against CLC-2
[5] = Table 2, read-out: IC50 (CLC-2)

Chain of CLC-1 (P35523 whole entry): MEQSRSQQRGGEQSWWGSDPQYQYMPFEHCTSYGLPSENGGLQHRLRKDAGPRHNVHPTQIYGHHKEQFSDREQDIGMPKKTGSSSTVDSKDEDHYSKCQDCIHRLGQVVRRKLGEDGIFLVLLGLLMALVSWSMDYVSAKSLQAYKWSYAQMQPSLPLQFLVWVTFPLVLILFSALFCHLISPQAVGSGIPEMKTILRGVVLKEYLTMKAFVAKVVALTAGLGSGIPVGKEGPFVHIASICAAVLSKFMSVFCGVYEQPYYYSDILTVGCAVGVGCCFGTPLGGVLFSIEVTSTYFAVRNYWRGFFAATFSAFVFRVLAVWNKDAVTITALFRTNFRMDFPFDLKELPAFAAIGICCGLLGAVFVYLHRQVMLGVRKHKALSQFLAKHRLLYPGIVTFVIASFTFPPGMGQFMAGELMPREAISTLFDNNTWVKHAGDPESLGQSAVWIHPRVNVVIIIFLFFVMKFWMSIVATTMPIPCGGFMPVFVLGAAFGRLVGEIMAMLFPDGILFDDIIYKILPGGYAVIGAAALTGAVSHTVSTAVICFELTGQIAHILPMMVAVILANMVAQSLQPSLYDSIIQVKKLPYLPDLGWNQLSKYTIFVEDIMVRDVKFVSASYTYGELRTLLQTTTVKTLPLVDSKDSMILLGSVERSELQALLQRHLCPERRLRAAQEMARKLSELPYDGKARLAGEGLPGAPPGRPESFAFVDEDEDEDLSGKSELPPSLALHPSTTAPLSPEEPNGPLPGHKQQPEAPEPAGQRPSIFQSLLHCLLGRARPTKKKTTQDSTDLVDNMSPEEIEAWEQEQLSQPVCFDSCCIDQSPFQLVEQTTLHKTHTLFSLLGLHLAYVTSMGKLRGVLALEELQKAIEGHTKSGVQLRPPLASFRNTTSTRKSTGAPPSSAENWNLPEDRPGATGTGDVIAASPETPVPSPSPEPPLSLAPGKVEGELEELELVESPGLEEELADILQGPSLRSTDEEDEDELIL
T1 sequence (P51788 whole entry): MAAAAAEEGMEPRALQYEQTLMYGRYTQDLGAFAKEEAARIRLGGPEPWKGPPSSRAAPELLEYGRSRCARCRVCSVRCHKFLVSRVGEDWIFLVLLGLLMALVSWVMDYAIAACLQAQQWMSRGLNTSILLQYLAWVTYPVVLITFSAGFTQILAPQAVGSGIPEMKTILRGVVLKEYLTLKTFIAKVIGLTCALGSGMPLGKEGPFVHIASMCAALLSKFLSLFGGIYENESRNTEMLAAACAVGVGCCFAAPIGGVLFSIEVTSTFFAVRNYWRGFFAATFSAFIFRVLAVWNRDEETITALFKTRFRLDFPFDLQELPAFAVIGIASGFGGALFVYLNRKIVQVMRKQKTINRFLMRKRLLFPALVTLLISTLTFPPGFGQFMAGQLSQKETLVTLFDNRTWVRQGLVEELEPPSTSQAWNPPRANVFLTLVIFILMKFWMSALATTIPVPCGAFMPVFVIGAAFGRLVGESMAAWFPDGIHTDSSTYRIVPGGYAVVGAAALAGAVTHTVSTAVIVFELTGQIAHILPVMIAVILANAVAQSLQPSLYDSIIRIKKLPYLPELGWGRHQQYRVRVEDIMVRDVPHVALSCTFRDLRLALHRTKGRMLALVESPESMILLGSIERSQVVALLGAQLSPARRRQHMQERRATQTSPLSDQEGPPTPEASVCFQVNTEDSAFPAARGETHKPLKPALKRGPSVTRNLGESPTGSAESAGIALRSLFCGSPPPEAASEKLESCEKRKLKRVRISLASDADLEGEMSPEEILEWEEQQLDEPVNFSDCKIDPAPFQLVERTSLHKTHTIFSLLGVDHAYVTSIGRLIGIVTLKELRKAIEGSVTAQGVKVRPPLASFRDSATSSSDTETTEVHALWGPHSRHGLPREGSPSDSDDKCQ

SMILES	% inhibition at the concentration listed (in parenthesis) [1]	IC50 [1, 4]	further results
O=C(O)c1ccccc1Nc1ccc(Cl)c(Cl)c1 [AK2-200B]	(12%)	> 120 µM	–
Cc1cccc(Nc2ccccc2C(=O)O)c1Cl [AK2-200C]	(43%)	> 120 µM	–
O=C(O)c1ccccc1Nc1c(Cl)cccc1Cl [AK2-209A]	–	22.1 µM	–
O=C(O)c1ccccc1Nc1cc(Cl)ccc1Cl [AK2-209B]	(23%)	> 120 µM	–
O=C(O)c1cccc2c1[nH]c1c(Cl)ccc(C(F)(F)F)c12 [AK2-270B]	(−48%)	> 120 µM	–
Cc1ccc(Cl)c(Nc2cccc(C)c2C(=O)O)c1Cl [AK2-288C]	(37%)	> 102 µM	–
COc1ccc(Cl)c(Nc2ccccc2C(=O)O)c1Cl [AK2-289A]	–	9.86 µM	–
C=C(C)c1ccc(Cl)c(Nc2ccccc2C(=O)O)c1Cl [AK2-289B]	–	7.16 µM	–
CCc1ccc(Cl)c(Nc2ccccc2C(=O)O)c1Cl [AK2-292]	–	7.69 µM	–
Cc1ccc(Cl)c2[nH]c3c(C(=O)O)ccc(F)c3c12 [AK3-98B]	(−16%)	> 69 µM	–
O=C(O)c1ccccc1Nc1c(Cl)ccc(OCC2CCCCC2)c1Cl [AK3-101A]	–	2.98 µM	–
COc1ccccc1-c1ccc(Cl)c(Nc2ccccc2C(=O)O)c1Cl [AK3-101B]	–	5.29 µM	–
O=C(O)c1ccccc1Nc1c(Cl)ccc(O)c1Cl [AK3-102A]	–	3.6 µM	–
Cc1ccc(Cl)c(Nc2cccnc2C(=O)O)c1Cl [AK3-107A]	(12%)	> 222 µM	–
Cc1ccc(Cl)c(Nc2ncccc2C(=O)O)c1Cl [AK3-108B]	–	1.79 µM	IC50 [1, 5]: 4 ± 0.7 µM; IC50 [2]: > 30 µM; percent inhibition of CLC-1 at highest concentration tested (in parenthesis) ([2]; at the concentration listed in the same cell): 5%
Cc1ccc(Cl)c(Nc2ccccc2P(=O)(O)O)c1Cl [AK3-118]	(6%)	> 195 µM	–
CCOP(=O)(O)c1ccccc1Nc1c(Cl)ccc(C)c1Cl [AK3-119]	(41%)	> 354 µM	–
Cc1ccc(Cl)c(Nc2ccccc2C(N)=O)c1Cl [AK3-124]	–	42.4 µM	–
NC(=O)c1ccccc1COc1ccc(Cl)c(Nc2ccccc2C(=O)O)c1Cl [AK3-225]	(0%)	> 120 µM	–
NC(=O)c1cccc(COc2ccc(Cl)c(Nc3ccccc3C(=O)O)c2Cl)c1 [AK3-226]	(5%)	> 120 µM	–
O=C(O)c1cccc2c1[nH]c1c(Cl)ccc(OCc3ccccc3)c12 [AK3-251]	(5%)	> 120 µM	–
O=C(O)c1c2ccccc2cc2ccccc12 [Compound 9-AC]	–	–	potency of previously reported small-molecule inhibitors of CLC-2 [3]: mM range
O=S(=O)(O)c1cc(N=C=S)ccc1C=Cc1ccc(N=C=S)cc1S(=O)(=O)O [DIDS]	–	–	potency of previously reported small-molecule inhibitors of CLC-2 [3]: mM range
O=C(O)c1cccnc1Nc1cccc(C(F)(F)F)c1 [NFA, reference compound]	(0%)	> 120 µM	–
O=C(O)c1cc([N+](=O)[O-])ccc1NCCCc1ccccc1 [NPPB]	–	–	potency of previously reported small-molecule inhibitors of CLC-2 [3]: mM range

Further lines, with some results ahead:

% inhibition at the concentration listed (in parenthesis) [1]	IC50 [1, 4]	SMILES	further results
(13%)	> 120 µM	O=C(O)c1ccccc1Nc1ccc(Cl)cc1Cl [AK2-200A]	–
(48%)	> 120 µM	Cc1ccc(Cl)c(Nc2ccccc2C(=O)O)c1 [AK2-214A]	–
(22%)	> 120 µM	O=C(O)c1ccccc1Nc1c(Cl)cc(Cl)cc1Cl [AK2-214B]	–
(41%)	> 120 µM	O=C(O)c1ccccc1Nc1c(F)cccc1F [AK2-214C]	–
(28%)	> 120 µM	Cc1ccc(Cl)c(Nc2ccccc2OS(=O)(=O)O)c1Cl [AK2-262]	–
–	35.7 µM	O=C(O)c1ccccc1Nc1c(Cl)ccc(C(F)(F)F)c1Cl [AK2-270A]	–
–	24.7 µM	Cc1ccc(C(=O)O)c(Nc2c(Cl)ccc(C)c2Cl)c1 [AK2-288A]	–
–	23.4 µM	Cc1cccc(C)c1Nc1ccccc1C(=O)O [AK2-289C]	–
–	33.4 µM	Cc1ccc(Cl)c(Nc2ccccc2-c2nnn[nH]2)c1Cl [AK3-89]	–
(36%)	> 141 µM	Cc1ccc(Cl)c(Nc2cccc(C(=O)O)c2)c1Cl [AK3-97A]	–
(8%)	> 144 µM	Cc1ccc(Cl)c(Nc2ccc(C(=O)O)cc2)c1Cl [AK3-97B]	–
–	86.3 µM	CCc1cccc(CC)c1Nc1ccccc1C(=O)O [AK3-97C]	–
–	13.7 µM	Cc1ccc(Cl)c(Nc2cc(F)ccc2C(=O)O)c1Cl [AK3-98A]	–
–	2.04 µM	COCOc1ccc(Cl)c(Nc2ccccc2C(=O)O)c1Cl [AK3-99A]	–
–	12.6 µM	O=C(O)c1ccccc1Nc1c(Cl)ccc(-c2ccccc2)c1Cl [AK3-100A]	–
–	48.8 µM	O=C(O)c1ccccc1Nc1c(Cl)ccc(C2=CCCCC2)c1Cl [AK3-103B]	–

% inhibition at the concentration listed (in parenthesis) [1]	IC50 [1, 4]	SMILES	further results
(16%)	> 42 µM	Cc1ccc(Cl)c(Nc2ccncc2C(=O)O)c1Cl [AK3-107B]	–
–	115 µM	Cc1ccc(Cl)c(Nc2cnccc2C(=O)O)c1Cl [AK3-108A]	–
(15%)	> 120 µM	NC(=O)c1ccc(COc2ccc(Cl)c(Nc3ccccc3C(=O)O)c2Cl)cc1 [AK3-219]	–
(4%)	> 120 µM	O=C(O)c1ccc(COc2ccc(Cl)c(Nc3ccccc3C(=O)O)c2Cl)cc1 [AK3-224]	–
–	81.9 µM	CC(=O)Nc1cccc(COc2ccc(Cl)c(Nc3ccccc3C(=O)O)c2Cl)c1 [AK3-227]	–
–	17.9 µM	O=C(O)c1cccc(COc2ccc(Cl)c(Nc3ccccc3C(=O)O)c2Cl)c1 [AK3-239]	–
–	67.8 µM	O=C(O)c1ccccc1COc1ccc(Cl)c(Nc2ccccc2C(=O)O)c1Cl [AK3-250]	–
–	1.16 µM	O=C(O)c1ccccc1Nc1c(Cl)ccc(OCc2ccccc2F)c1Cl [AK3-261]	–
–	77.1 µM	O=C(CCCC[C@@H]1SC[C@@H]2NC(=O)N[C@@H]21)NCCOCCOCCOCCOCCC(=O)NCCOc1ccc(Cl)c(Nc2ccccc2C(=O)O)c1Cl [AK3-294]	–
(7%)	> 120 µM	NCCOc1ccc(Cl)c(Nc2ccccc2C(=O)O)c1Cl [AK3-296]	–
(27%)	> 312 µM	O=C(O)c1ccccc1Nc1ccccc1 [DPC, reference compound]	potency of previously reported small-molecule inhibitors of CLC-2 [3]: mM range
–	7.93 µM	Cc1cccc(COc2ccc(Cl)c(Nc3ccccc3C(=O)O)c2Cl)c1 [EEGI-054]	–
–	1.2 µM	Cc1ccccc1COc1ccc(Cl)c(Nc2ccccc2C(=O)O)c1Cl [EEGI-055]	–
–	15.8 µM	Cc1ccc(COc2ccc(Cl)c(Nc3ccccc3C(=O)O)c2Cl)cc1 [EEGI-056]	–
–	7.32 µM	O=C(O)c1ccccc1Nc1c(Cl)ccc(OCCc2ccccc2)c1Cl [EEGI-060]	–
–	14 µM and 13.9 µM	Cc1ccc(Cl)c(Nc2ccccc2C(=O)O)c1Cl [MCFA, meclofenamate, reference compound]	IC50 [1, 5]: 8.7 ± 0.3 µM; IC50 [2]: 60 ± 9 µM
